This is an account of results in ChEMBL document CHEMBL1909046, “DrugMatrix in vitro pharmacology data”.

For experiment [1], the target named is T1, Alpha-1D adrenergic receptor (Homo sapiens, UniProt P25100). Note: in other assays of this panel Not Active means under 50% inhibition at 10 µM.
T1 sequence (P25100 whole entry): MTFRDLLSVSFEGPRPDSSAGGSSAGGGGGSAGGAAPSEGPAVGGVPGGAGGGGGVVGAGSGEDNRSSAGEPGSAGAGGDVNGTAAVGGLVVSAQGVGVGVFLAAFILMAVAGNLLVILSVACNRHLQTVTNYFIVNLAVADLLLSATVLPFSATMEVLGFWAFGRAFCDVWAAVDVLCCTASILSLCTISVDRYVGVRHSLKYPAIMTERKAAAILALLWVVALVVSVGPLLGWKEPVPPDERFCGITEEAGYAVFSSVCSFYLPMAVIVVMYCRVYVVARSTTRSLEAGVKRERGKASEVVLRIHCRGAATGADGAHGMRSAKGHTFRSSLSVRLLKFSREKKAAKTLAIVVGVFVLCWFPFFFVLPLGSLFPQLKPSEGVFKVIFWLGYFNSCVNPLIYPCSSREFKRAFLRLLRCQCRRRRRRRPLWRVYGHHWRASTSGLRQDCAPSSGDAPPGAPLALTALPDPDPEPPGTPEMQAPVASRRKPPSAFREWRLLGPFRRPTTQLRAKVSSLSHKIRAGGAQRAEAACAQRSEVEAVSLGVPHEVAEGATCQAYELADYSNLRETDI
The class given is cell membranes, HEK293, Membrane. As to conditions: hek293.

Experiment [2] concerns the target C-C chemokine receptor type 2 (Homo sapiens, UniProt P41597). The class given is cell membranes, CHO-K1, Membrane. As to conditions: cho-k1. Note: in other assays of this panel Not Active means under 50% inhibition at 10 µM.
Experiment [3] concerns the target T2, C-X-C chemokine receptor type 1 (Homo sapiens, UniProt P25024). Note: in other assays of this panel Not Active means under 50% inhibition at 10 µM.
T2 sequence (P25024 whole entry): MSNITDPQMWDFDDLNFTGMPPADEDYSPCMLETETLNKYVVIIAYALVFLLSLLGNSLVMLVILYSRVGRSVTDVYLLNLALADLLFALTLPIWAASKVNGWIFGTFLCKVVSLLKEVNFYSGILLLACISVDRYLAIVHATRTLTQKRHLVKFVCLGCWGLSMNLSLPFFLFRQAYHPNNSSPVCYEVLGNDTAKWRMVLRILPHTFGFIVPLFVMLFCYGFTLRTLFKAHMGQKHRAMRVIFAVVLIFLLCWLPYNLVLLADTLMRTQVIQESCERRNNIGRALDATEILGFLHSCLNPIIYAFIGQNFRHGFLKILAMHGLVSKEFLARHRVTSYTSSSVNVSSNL

Experiment [4] in a line: DRUGMATRIX: GABAA, Chloride Channel, TBOB radioligand binding (ligand: [3H] TBOB). The experiment is classed as cell membranes, Rattus norvegicus, Wistar, Cerebral cortex, Membrane. The note with it: Not Active = under 50% inhibition at 10 µM.
A short description of experiment [5]: DRUGMATRIX: Glutamate, Kainate radioligand binding (ligand: [3H] Kainic acid). The class given is cell membranes, Rattus norvegicus, Wistar, Brain, Membrane. As to conditions: Not Active = under 50% inhibition at 10 µM.
The nature of experiment [6]: DRUGMATRIX: Glutamate, NMDA, Phencyclidine radioligand binding (ligand: [3H] TCP). The experiment is classed as cell membranes, Rattus norvegicus, Wistar, Cerebral cortex, Membrane. The note with it: Not Active = under 50% inhibition at 10 µM.
Another experiment has as its target T3, Progesterone receptor (Bos taurus, UniProt Q690N0).
T3 sequence (Q690N0 whole entry): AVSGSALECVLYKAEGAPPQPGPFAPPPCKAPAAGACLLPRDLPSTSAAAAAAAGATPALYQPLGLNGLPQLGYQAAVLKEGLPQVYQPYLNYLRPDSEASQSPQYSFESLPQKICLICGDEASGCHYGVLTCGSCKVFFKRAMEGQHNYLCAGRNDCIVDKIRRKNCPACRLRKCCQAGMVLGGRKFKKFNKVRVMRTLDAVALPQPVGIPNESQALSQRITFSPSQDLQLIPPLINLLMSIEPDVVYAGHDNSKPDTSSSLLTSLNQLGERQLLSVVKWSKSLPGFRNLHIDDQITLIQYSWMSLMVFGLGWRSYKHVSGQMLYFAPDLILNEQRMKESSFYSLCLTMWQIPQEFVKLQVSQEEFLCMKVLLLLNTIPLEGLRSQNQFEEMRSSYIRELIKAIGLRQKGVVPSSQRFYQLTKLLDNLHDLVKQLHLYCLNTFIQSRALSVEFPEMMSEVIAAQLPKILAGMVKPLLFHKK
Put plainly: DRUGMATRIX: Progesterone radioligand binding (ligand: [3H] R-5020). The experiment is classed as tissue-based, Uterus. The note with it: Not Active = under 50% inhibition at 10 µM; for Ki: read-out: Ki.

C-C chemokine receptor type 2, sequence (P41597 whole entry): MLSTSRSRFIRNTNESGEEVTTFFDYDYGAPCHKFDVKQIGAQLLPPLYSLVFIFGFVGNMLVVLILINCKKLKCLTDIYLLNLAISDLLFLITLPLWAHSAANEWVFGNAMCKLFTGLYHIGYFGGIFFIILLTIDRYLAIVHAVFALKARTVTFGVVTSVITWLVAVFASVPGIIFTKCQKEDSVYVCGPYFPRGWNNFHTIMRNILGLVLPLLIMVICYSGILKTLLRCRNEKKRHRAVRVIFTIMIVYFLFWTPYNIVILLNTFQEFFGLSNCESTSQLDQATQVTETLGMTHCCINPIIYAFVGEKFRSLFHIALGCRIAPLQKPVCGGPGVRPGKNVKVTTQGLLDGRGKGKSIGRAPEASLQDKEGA

Broadly, the IC50 is the concentration that gives 50% inhibition. One may read the Ki as a measure of affinity in units of concentration, obtained from inhibition or displacement. As to `OC(Cn1cncn1)(Cn1cncn1)c1ccc(F)cc1F` [FLUCONAZOLE], the IC50 result in experiment [1], in experiment [2], in experiment [3], in experiment [4], in experiment [5] and in experiment [6] was “Not Active” in each case. For the same compound, the IC50 entry on Progesterone receptor is reported as “Not Active”. Besides, the Ki entry in experiment [4], in experiment [5] and in experiment [6] was “Not Active” in each case.
For `CC(C)C(=O)Nc1ccc([N+](=O)[O-])c(C(F)(F)F)c1` [FLUTAMIDE], the IC50 result in experiment [1], in experiment [2], in experiment [3], in experiment [4], in experiment [5] and in experiment [6] was “Not Active” throughout. Besides, at Progesterone receptor, the IC50 result is “Not Active”. Moreover, the Ki result in experiment [4], in experiment [5] and in experiment [6] was “Not Active” each time.
For `N=C(N)NCCN1CCCCCCC1` [GUANETHIDINE], the IC50 result in experiment [1], in experiment [2], in experiment [3], in experiment [4], in experiment [5] and in experiment [6] was “Not Active” throughout. Also, on Progesterone receptor, the half-inhibitory concentration (IC50) entry is recorded as “Not Active”. For the same compound, the Ki entry in experiment [4], in experiment [5] and in experiment [6] was “Not Active” throughout.
Regarding `CC1(C)O[C@@H]2C[C@H]3[C@@H]4CCC5=CC(=O)CC[C@]5(C)[C@@]4(F)[C@@H](O)C[C@]3(C)[C@]2(C(=O)CCl)O1` [HALCINONIDE], the IC50 result in experiment [1], in experiment [2], in experiment [3], in experiment [4], in experiment [5] and in experiment [6] was “Not Active” in each case. In addition, on Progesterone receptor (read-out: IC50), the IC50 is 0.93 nM. The inhibition constant Ki entry was “Not Active” in experiment [4], “Not Active” in experiment [5], “Not Active” in experiment [6] and 0.121 nM at Progesterone receptor.
In the case of `O=c1[nH]c(=O)n([C@H]2C[C@H](O)[C@@H](CO)O2)cc1I` [IDOXURIDINE], the IC50 result in experiment [1], in experiment [2], in experiment [3], in experiment [4], in experiment [5] and in experiment [6] was “Not Active” in each case. Also, at Progesterone receptor, the IC50 result was “Not Active”. Besides, the Ki entry in experiment [4], in experiment [5] and in experiment [6] was “Not Active” throughout.
In the case of `CC1Cc2ccccc2N1NC(=O)c1ccc(Cl)c(S(N)(=O)=O)c1` (configuration not stated) [INDAPAMIDE], the IC50 result in experiment [1], in experiment [2], in experiment [3], in experiment [4], in experiment [5] and in experiment [6] was “Not Active” each time. In addition, the IC50 entry on Progesterone receptor was “Not Active”. Besides, the inhibition constant Ki result in experiment [4], in experiment [5] and in experiment [6] was “Not Active” each time.
In the case of `Nc1nc(N)nc(-c2cc(Cl)ccc2Cl)n1.O=C(O)/C=C\C(=O)O` [IRSOGLADINE MALEATE], the IC50 entry in experiment [1], in experiment [2], in experiment [3], in experiment [4], in experiment [5] and in experiment [6] was “Not Active” throughout. Further, the IC50 result on Progesterone receptor was “Not Active”. Moreover, the Ki result in experiment [4], in experiment [5] and in experiment [6] was “Not Active” throughout.
Consider `CCC(C)n1ncn(-c2ccc(N3CCN(c4ccc(OCC5COC(Cn6cncn6)(c6ccc(Cl)cc6Cl)O5)cc4)CC3)cc2)c1=O` (configuration not stated) [ITRACONAZOLE], for which the IC50 entry in experiment [1], in experiment [2], in experiment [3], in experiment [4], in experiment [5] and in experiment [6] was “Not Active” in each case. The IC50 entry at Progesterone receptor is recorded as “Not Active”. Further, the Ki entry in experiment [4], in experiment [5] and in experiment [6] was “Not Active” throughout.
As for `CCCCN1CCCC[C@H]1C(=O)Nc1c(C)cccc1C` [LEVOBUPIVACAINE], the IC50 entry in experiment [1], in experiment [2], in experiment [3], in experiment [4], in experiment [5] and in experiment [6] was “Not Active” in each case. Further, the IC50 result on Progesterone receptor is given as “Not Active”. For the same compound, the inhibition constant Ki entry in experiment [4], in experiment [5] and in experiment [6] was “Not Active” throughout.
For `Sc1ncnc2nc[nH]c12` [MERCAPTOPURINE ANHYDROUS], the IC50 result in experiment [1], in experiment [2], in experiment [3], in experiment [4], in experiment [5] and in experiment [6] was “Not Active” each time. The IC50 entry on Progesterone receptor was “Not Active”. The Ki result in experiment [4], in experiment [5] and in experiment [6] was “Not Active” throughout.
`C[C@](N)(Cc1ccc(O)c(O)c1)C(=O)O` [METHYLDOPA]: the IC50 entry in experiment [1], in experiment [2], in experiment [3], in experiment [4], in experiment [5] and in experiment [6] was “Not Active” in each case. Further, the IC50 result on Progesterone receptor was “Not Active”. In addition, the Ki entry in experiment [4], in experiment [5] and in experiment [6] was “Not Active” throughout.
`C[C@]12CCC(=O)C=C1CC[C@@H]1[C@@H]2CC[C@@]2(C)[C@H]1CC[C@]2(C)O` [METHYLTESTOSTERONE]: the IC50 entry in experiment [1], in experiment [2], in experiment [3], in experiment [4], in experiment [5] and in experiment [6] was “Not Active” throughout. For the same compound, the IC50 on Progesterone receptor (read-out: IC50) is 251 nM. For the same compound, the Ki result in experiment [4] was “Not Active”; in experiment [5] it was “Not Active”; in experiment [6] it was “Not Active”; at Progesterone receptor it was 33 nM.
As to `Cc1ccccc1N1C(=O)c2cc(S(N)(=O)=O)c(Cl)cc2NC1C` (configuration not stated) [METOLAZONE], the IC50 result in experiment [1], in experiment [2], in experiment [3], in experiment [4], in experiment [5] and in experiment [6] was “Not Active” throughout. In addition, the IC50 entry at Progesterone receptor is recorded as “Not Active”. Moreover, the Ki result in experiment [4], in experiment [5] and in experiment [6] was “Not Active” in each case.
In the case of `COCCc1ccc(OCC(O)CNC(C)C)cc1` (configuration not stated) [METOPROLOL], the IC50 result in experiment [1], in experiment [2], in experiment [3], in experiment [4], in experiment [5] and in experiment [6] was “Not Active” each time. Further, the concentration for half-maximal inhibition (IC50) entry at Progesterone receptor was “Not Active”. Besides, the Ki result in experiment [4], in experiment [5] and in experiment [6] was “Not Active” throughout.
Take `CCn1cc(C(=O)O)c(=O)c2cc(F)c(N3CCNCC3)cc21` [NORFLOXACIN]: the IC50 result in experiment [1], in experiment [2], in experiment [3], in experiment [4], in experiment [5] and in experiment [6] was “Not Active” each time. The IC50 result at Progesterone receptor is “Not Active”. In addition, the Ki result in experiment [4], in experiment [5] and in experiment [6] was “Not Active” each time.
